# According to patent US12454529B2, “Piperazine cyclic ureas” (SIRONAX LTD., priority 2020, dated 2025):
# Test system: HT-29 cells
# Test: HT-29 cell necrosis/necroptosis inhibition (TNF-α + SMAC mimetic + zVAD-FMK; CellTiter-Glo cell viability)
# Assay type: cell-based
# Settings: Homo sapiens, HT-29, 20 h, read-out: EC50 (Cell activity; Necrosis/Necroptosis Inhibitory Activity, Compounds 1-142)
# How it was run: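 HT-29 cells (~5,000/well) were switched to FBS-free McCOY's 5A holding TNF-α (10 ng/ml), SMAC mimetic (6 μM) and zVAD-FMK (10 μM), then dosed with a 10-point 1:3 series for 20 h at 37 °C. CellTiter-Glo luminescence gave viability; geometric mean EC50 from duplicates.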
row,Structure (SMILES),EC50
1,"Cc1nnnn1-c1ccnc(N2CCN(C(=O)N3N=CC[C@H]3c3cncc(F)c3)CC2)n1 [Compound 26, (S)-(5-(5-fluoropyridin-3-yl)-4,5-dihydro-1H-pyrazol-1-yl)(4-(4-(5-methyl-1H-tetrazol-1-yl)pyrimidin-2-yl)piperazin-1-yl)methanone]",0.1 to 100 nM

# Same assay, conditions: Homo sapiens; HT-29 cells, TNF-α 10 ng/ml + SMAC mimetic 6 μM + zVAD-FMK 10 μM, 20 hours; geometric mean, 10 points in duplicate; read-out: EC50 (Cell activity; Necrosis/Necroptosis Inhibitory Activity, Compounds 1-142)
row,Structure (SMILES),EC50
1,"O=C(N1CCN(c2ncc(F)c(-c3[nH]nnc3C(F)(F)F)n2)CC1)N1N=CC[C@H]1c1cc(F)cc(F)c1 [Compound 105, (S)-(5-(3,5-difluorophenyl)-4,5-dihydro-1H-pyrazol-1-yl)(4-(5-fluoro-4-(4-(trifluoromethyl)-1H-1,2,3-triazol-5-yl)pyrimidin-2-yl)piperazinyl)methanone]",0.1 to 100 nM
2,"Cc1nnn(C)c1-c1nc(N2CCN(C(=O)N3N=CC[C@H]3c3cc(F)cc(C#N)c3)CC2)ncc1F [Compound 70, (S)-3-(1-(4-(4-(1,4-dimethyl-1H-1,2,3-triazol-5-yl)-5-fluoropyrimidin-2-yl)piperazine-1-carbonyl)-4,5-dihydro-1H-pyrazol-5-yl)-5-fluorobenzonitrile]",0.1 to 100 nM
3,"Cc1cc(C(N)=O)cn1-c1nc(N2CCN(C(=O)N3N=CC[C@H]3c3cc(F)cc(F)c3)CC2)ncc1F [Compound 92, (S)-1-(2-(4-(5-(3,5-difluorophenyl)-4,5-dihydro-1H-pyrazole-1-carbonyl)piperazin-1-yl)-5-fluoropyrimidin-4-yl)-5-methyl-1H-pyrrole-3-carboxamide]",0.1 to 100 nM
4,"COCCn1nc(C)c(-c2nc(N3CCN(C(=O)N4N=CC[C@H]4c4cc(F)cc(F)c4)CC3)ncc2F)c1C [Compound 120, (S)-(5-(3,5-difluorophenyl)-4,5-dihydro-1H-pyrazol-1-yl)(4-(5-fluoro-4-(1-(2-methoxyethyl)-3,5-dimethyl-1H-pyrazol-4-yl)pyrimidin-2-yl)piperazin-1-yl)methanone]",0.1 to 100 nM
5,"Cc1nnnn1-c1nc(N2CCN(C(=O)N3N=CC[C@H]3c3cc(F)cc(C#N)c3)CC2)ncc1F [Compound 59, (S)-3-fluoro-5-(1-(4-(5-fluoro-4-(5-methyl-1H-tetrazol-1-yl)pyrimidin-2-yl)piperazine-1-carbonyl)-4,5-dihydro-1H-pyrazol-5-yl)benzonitrile]",0.1 to 100 nM
6,"NC(=O)Cn1ccc(-c2nc(N3CCN(C(=O)N4N=CC[C@H]4c4cc(F)cc(F)c4)CC3)ncc2F)n1 [Compound 29, (S)-2-(3-(2-(4-(5-(3,5-difluorophenyl)-4,5-dihydro-1H-pyrazole-1-carbonyl)piperazin-1-yl)-5-fluoropyrimidin-4-yl)-1H-pyrazol-1-yl)acetamide]",0.1 to 100 nM
7,"NC(=O)Cn1cc(-c2nc(N3CCN(C(=O)N4N=CC[C@H]4c4cc(F)cc(F)c4)CC3)ncc2F)cn1 [Compound 53, (S)-2-(4-(2-(4-(5-(3,5-difluorophenyl)-4,5-dihydro-1H-pyrazole-1-carbonyl)piperazin-1-yl)-5-fluoropyrimidin-4-yl)-1H-pyrazol-1-yl)acetamide]",0.1 to 100 nM
8,"Cc1cn(-c2nc(N3CCN(C(=O)N4N=CC[C@H]4c4cc(F)cc(C#N)c4)CC3)ncc2F)c(C#N)n1 [Compound 16, (S)-1-(2-(4-(5-(3-cyano-5-fluorophenyl)-4,5-dihydro-1H-pyrazole-1-carbonyl)piperazin-1-yl)-5-fluoropyrimidin-4-yl)-4-methyl-1H-imidazole-2-carbonitrile]",0.1 to 100 nM
9,"N#Cc1cc(F)cc([C@@H]2CC=NN2C(=O)N2CCN(c3ncc(F)c(-n4ccc(C#N)n4)n3)CC2)c1 [Compound 128, (S)-1-(2-(4-(5-(3-cyano-5-fluorophenyl)-4,5-dihydro-1H-pyrazole-1-carbonyl)piperazin-1-yl)-5-fluoropyrimidin-4-yl)-1H-pyrazole-3-carbonitrile]",0.1 to 100 nM
10,"Cc1nn(CC(N)=O)nc1-c1nc(N2CCN(C(=O)N3N=CC[C@H]3c3cc(F)cc(C#N)c3)CC2)ncc1F [Compound 78, (S)-2-(4-(2-(4-(5-(3-cyano-5-fluorophenyl)-4,5-dihydro-1H-pyrazole-1-carbonyl)piperazin-1-yl)-5-fluoropyrimidin-4-yl)-5-methyl-2H-1,2,3-triazol-2-yl)acetamide]",0.1 to 100 nM

# Same assay, conditions: Homo sapiens; HT-29 cells, TNF-α 10 ng/ml + SMAC mimetic 6 μM + zVAD-FMK 10 μM, 20 hours; geometric mean, 10 points in duplicate; read-out: EC50 (Cell activity; Necrosis/Necroptosis Inhibitory Activity, Compounds 143-323)
row,Structure (SMILES),EC50
1,"Cc1ncn(-c2nc(N3CCN(C(=O)N4N=CC[C@H]4c4cc(F)cc(F)c4)CC3)ncc2F)n1 [Compound 235, (S)-(5-(3,5-difluorophenyl)-4,5-dihydro-1H-pyrazol-1-yl)(4-(5-fluoro-4-(3-methyl1H-1,2,4-triazol-1-yl)pyrimidin-2-yl)piperazin-1-yl)methanone]",0.1 to 100 nM
2,"Cc1c(N)nn(C)c1-c1ccnc(N2CCN(C(=O)N3N=CC[C@H]3c3cc(F)cc(F)c3)CC2)n1 [Compound 143, (S)-(4-(4-(3-amino-1,4-dimethyl-1H-pyrazol-5-yl)pyrimidinyl)piperazin-1-yl)(5-(3,5-difluorophenyl)-4,5-dihydro-1H-pyrazol-1-yl)methanone]",0.1 to 100 nM
3,"Cc1cnn(C)c1-c1cc(N2CCN(C(=O)N3N=CC[C@H]3c3cc(F)cc(C#N)c3)CC2)c(F)cn1 [Compound 269, (S)-3-(1-(4-(2-(1,4-dimethyl-1H-pyrazol-5-yl)-5-fluoropyridin-4-yl)piperazine-1-carbonyl)-4,5-dihydro-1H-pyrazol-5-yl)-5-fluorobenzonitrile]",0.1 to 100 nM
4,"Cc1cnn(C)c1-c1cc(N2CCN(C(=O)N3N=CC[C@H]3c3cc(F)cc(F)c3)CC2)c(F)cn1 [Compound 149, (S)-(5-(3,5-difluorophenyl)-4,5-dihydro-1H-pyrazol-1-yl)(4-(2-(1,4-dimethyl-1H-pyrazol-5-yl)-5-fluoropyridin-4-yl)piperazin-1-yl)methanone]",0.1 to 100 nM
5,"Cn1nc(C#N)nc1-c1nc(N2CCN(C(=O)N3N=CCC3c3cc(F)cc(F)c3)CC2)ncc1F (centres unmarked) [Compound 228, 5-(2-(4-(5-(3,5-difluorophenyl)-4,5-dihydro-1H-pyrazole-1-carbonyl)piperazin-1-yl)-5-fluoropyrimidin-4-yl)-1-methyl-1H-1,2,4-triazole-3-carbonitrile]",0.1 to 100 nM
6,"CCn1ncnc1-c1nc(N2CCN(C(=O)N3N=CC[C@H]3c3cc(F)cc(C#N)c3)CC2)ncc1Cl [Compound 168, (S)-3-(1-(4-(5-chloro-4-(1-ethyl-1H-1,2,4-triazol-5-yl)pyrimidin-2-yl)piperazine-1-carbonyl)-4,5-dihydro-1H-pyrazol-5-yl)-5-fluorobenzonitrile]",0.1 to 100 nM
7,"Cc1nc(C2CC=NN2C(=O)N2CCN(c3nc(-c4c(C)cnn4C)ncc3F)CC2)cs1 (centres unmarked) [Compound 158, (4-(2-(1,4-dimethyl-1H-pyrazol-5-yl)-5-fluoropyrimidin-4-yl)piperazinyl)(5-(2-methylthiazol-4-yl)-4,5-dihydro-1H-pyrazol-1-yl)methanone]",0.1 to 100 nM
8,"O=C(N1CCN(c2ncc(F)c(-n3cnc(C(F)(F)F)n3)n2)CC1)N1N=CC[C@H]1c1cccc(F)c1 [Compound 313, (S)-(4-(5-fluoro-4-(3-(trifluoromethyl)-1H-1,2,4-triazol-1-yl)pyrimidin-2-yl)piperazin-1-yl)(5-(3-fluorophenyl)-4,5-dihydro-1H-pyrazol-1-yl)methanone]",0.1 to 100 nM
9,"Cc1nn2c(c1-c1nc(N3CCN(C(=O)N4N=CC[C@H]4c4cc(F)cc(C#N)c4)CC3)ncc1F)CCC2 [Compound 184, (S)-3-fluoro-5-(1-(4-(5-fluoro-4-(2-methyl-5,6-dihydro-4H-pyrrolo[1,2-b]pyrazol-3-yl)pyrimidin-2-yl)piperazine-1-carbonyl)-4,5-dihydro-1H-pyrazol-5-yl)benzonitrile]",0.1 to 100 nM
10,"Cc1nc(CO)nn1-c1nc(N2CCN(C(=O)N3N=CC[C@H]3c3cc(F)cc(C#N)c3)CC2)ncc1F [Compound 144, (S)-3-fluoro-5-(1-(4-(5-fluoro-4-(3-(hydroxymethyl)-5-methyl-1H-1,2,4-triazol-1-yl)pyrimidin-2-yl)piperazine-1-carbonyl)-4,5-dihydro-1H-pyrazol-5-yl)benzonitrile]",0.1 to 100 nM
11,"Cc1cnn(C)c1-c1sc(N2CCN(C(=O)N3N=CC[C@H]3c3cc(F)cc(F)c3)CC2)nc1Cl [Compound 185, (S)-(4-(4-chloro-5-(1,4-dimethyl-1H-pyrazol-5-yl)thiazol-2-yl)piperazin-1-yl)(5-(3,5-difluorophenyl)-4,5-dihydro-1H-pyrazol-1-yl)methanone]",0.1 to 100 nM
12,"Cn1ncnc1-c1ccc(F)c(N2CCN(C(=O)N3N=CCC3c3ncccc3Cl)CC2)n1 (centres unmarked) [Compound 222, (5-(3-chloropyridin-2-yl)-4,5-dihydro-1H-pyrazol-1-yl)(4-(3-fluoro-6-(1-methyl-1H-1,2,4-triazol-5-yl)pyridin-2-yl)piperazin-1-yl)methanone]",0.1 to 100 nM
